Columns and labels:
[1] = target: Mu-type opioid receptor (Mus musculus, UniProt P42866); assay: Binding affinity against mu opioid receptor […]
[2] = Binding affinity against delta opioid receptor […]; parameters: species or system Mus musculus
[3] = target: Mu-type opioid receptor (Mus musculus) (UniProt P42866); assay: Ratio of binding affinity against mu to that of delta opioid receptor
Mu-type opioid receptor (Mus musculus), sequence (P42866 whole entry): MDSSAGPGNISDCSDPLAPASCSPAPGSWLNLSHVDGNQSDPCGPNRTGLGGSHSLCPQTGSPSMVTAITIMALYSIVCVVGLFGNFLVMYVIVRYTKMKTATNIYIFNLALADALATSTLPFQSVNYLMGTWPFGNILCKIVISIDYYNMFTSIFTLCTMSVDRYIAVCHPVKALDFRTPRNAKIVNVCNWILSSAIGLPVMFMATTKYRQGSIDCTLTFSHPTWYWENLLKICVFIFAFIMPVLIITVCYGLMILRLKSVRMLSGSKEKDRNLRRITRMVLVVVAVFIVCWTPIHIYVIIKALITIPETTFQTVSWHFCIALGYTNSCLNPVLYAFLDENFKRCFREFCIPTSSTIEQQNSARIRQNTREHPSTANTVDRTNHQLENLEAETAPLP

Mu-type opioid receptor, sequence (P42866 whole entry): as above

| SMILES | Ki [1] [nM] | Ki [2] [nM] | Ratio [3] |
| --- | --- | --- | --- |
| C=C(C)CCN1[C@@H]2CC[C@H]1C/C(=C(\c1ccc(C(=O)NCC)cc1)c1cccc(C(=O)O)c1)C2 | 24 | 30 | – |
| CCNC(=O)c1ccc(C(=C2CC3CCC(C2)N3Cc2ccoc2)c2cccc(CN)c2)cc1 | 71 | 20 | 3.6 |
| CCNC(=O)c1ccc(C(=C2CC3CCC(C2)N3Cc2ccoc2)c2cccc(-c3nn[nH]n3)c2)cc1 | – | 0.73 | 2100 |
| CCNC(=O)c1ccc(C(=C2CC3CCC(C2)N3Cc2ccoc2)c2ccc(S(N)(=O)=O)cc2)cc1 | 50 | 16 | 3.1 |
| CCNC(=O)c1ccc(/C(Br)=C2/C[C@H]3CC[C@@H](C2)N3Cc2ccoc2)cc1 | 39 | 29 | – |
| CCNC(=O)c1ccc(/C(=C2\C[C@H]3CC[C@@H](C2)N3Cc2ccccn2)c2ccc(C(=O)N(C)C)cc2)cc1 | 14 | 0.2 | – |
| C=C(C)CCN1C2CCC1CC(=C(c1ccc(C(=O)NCC)cc1)c1ccco1)C2 | 6.3 | 5.6 | 1.1 |
| CCNC(=O)c1ccc(C(=C2CC3CCC(C2)N3Cc2ccoc2)c2cccnc2)cc1 | 1.2 | 0.4 | 3 |
| CCNC(=O)c1ccc(C(=C2CC3CCC(C2)N3Cc2ccoc2)c2c(C)noc2C)cc1 | 1.8 | 1.2 | 1.5 |
| CCNC(=O)c1ccc(C(=C2CC3CCC(C2)N3Cc2cccc(C(=O)O)c2)c2ccccc2)cc1 | 480 | 280 | 1.7 |
| C=C(C)CCN1[C@@H]2CC[C@H]1C/C(=C(/c1ccc(C(=O)NCC)cc1)c1cccc(C(=O)O)c1)C2 | 58 | 2.2 | – |
| CCNC(=O)c1ccc(/C(=C2/C[C@H]3CC[C@@H](C2)N3Cc2ccsc2)c2ccc(CO)cc2)cc1 | 80 | 17 | – |
| CCNC(=O)c1ccc(C(=C2CC3CCC(C2)N3Cc2ccoc2)c2cnc3ccccc3c2)cc1 | 4 | 20 | 0.2 |
| CCNC(=O)c1ccc(C(=C2CC3CCC(C2)N3Cc2ccoc2)c2cccc(NC(C)=O)c2)cc1 | 1.2 | 0.5 | 2.4 |
| CCNC(=O)c1ccc(C(Br)=C2CC3CCC(C2)N3Cc2ccoc2)cc1 | 1.9 | 0.8 | 2.4 |
| CCNC(=O)c1ccc(C(=C2CC3CCC(C2)N3Cc2ccoc2)c2ccc(NC(C)=O)cc2)cc1 | 0.8 | 0.34 | 2.4 |
| CCNC(=O)c1ccc(C(=C2CC3CCC(C2)N3Cc2ccccn2)c2cccc(NC(C)=O)c2)cc1 | 3.6 | 28 | 0.13 |
| CCNC(=O)c1ccc(C(=C2CC3CCC(C2)N3Cc2ccoc2)c2ccc(F)cc2)cc1 | 1.7 | 1.4 | 1.2 |
| CCNC(=O)c1ccc(/C(C#N)=C2\C[C@H]3CC[C@@H](C2)N3Cc2ccoc2)cc1 | 2.6 | 0.9 | – |
| CCNC(=O)c1ccc(C(=C2CC3CCC(C2)N3Cc2ccoc2)c2ccc([N+](=O)[O-])cc2)cc1 | 1.5 | 0.23 | 6.5 |
| CCNC(=O)c1ccc(C(=C2CC3CCC(C2)N3Cc2ccoc2)c2ccc3c(c2)OCO3)cc1 | 1.1 | – | 1 |

| SMILES | Ki [1] [nM] | Ki [2] [nM] | Ratio [3] |
| --- | --- | --- | --- |
| CCNC(=O)c1ccc(C(=C2CC3CCC(C2)N3Cc2ccoc2)c2cccc(F)c2)cc1 | 3.7 | 0.4 | 9.3 |
| CCNC(=O)c1ccc(C(=C2CC3CCC(C2)N3Cc2ccoc2)c2cccc(CO)c2)cc1 | 0.81 | 0.15 | 5.4 |
| CCNC(=O)c1ccc(C(=C2CC3CCC(C2)N3Cc2ccoc2)c2ccc(S(C)(=O)=O)cc2)cc1 | 3.1 | 2 | 1.6 |
| CCNC(=O)c1ccc(C(C#N)=C2CC3CCC(C2)N3Cc2ccoc2)cc1 | 1 | 0.3 | 3.3 |
| CCNC(=O)c1ccc(C(=C2CC3CCC(C2)N3Cc2ccoc2)c2ccc(CO)cc2)cc1 | 19 | 2.7 | 7 |
| CCNC(=O)c1ccc(/C(Br)=C2\C[C@H]3CC[C@@H](C2)N3Cc2ccoc2)cc1 | 0.2 | 0.3 | – |
| CCNC(=O)c1ccc(/C(=C2\C[C@H]3CC[C@@H](C2)N3Cc2ccsc2)c2ccc(CO)cc2)cc1 | 17 | 2 | – |
| CCNC(=O)c1ccc(C(=C2CC3CCC(C2)N3Cc2ccoc2)c2ccc(C(C)=O)cc2)cc1 | 1.7 | 0.33 | 5.2 |
| CCNC(=O)c1ccc(C(=C2CC3CCC(C2)N3Cc2ccsc2)c2ccc3c(c2)OCO3)cc1 | 1.3 | 3.1 | 0.42 |
| CCNC(=O)c1ccc(C(=C2CC3CCC(C2)N3Cc2ccoc2)c2cnccn2)cc1 | 9.9 | 3.4 | 2.9 |
| CCNC(=O)c1ccc(C(=C2CC3CCC(C2)N3Cc2ccoc2)c2ccc(N(C)C)cc2)cc1 | 51 | 8.7 | 5.9 |
| CCNC(=O)c1ccc(C(=C2CC3CCC(C2)N3Cc2ccoc2)c2cccc(N)c2)cc1 | 2.6 | 2 | 1.3 |
| C=C(C)CCN1[C@@H]2CC[C@H]1C/C(=C(\c1ccc(C(=O)NCC)cc1)c1cccc(C(C)=O)c1)C2 | 680 | 28 | – |
| CCN(CC)C(=O)c1ccc(C(=C2CC3CCC(C2)N3CCc2ccccc2)c2ccccc2)cc1 | 0.26 | 47 | 0.0055 |
| CCNC(=O)c1ccc(/C(=C2/C[C@H]3CC[C@@H](C2)N3Cc2ccccn2)c2ccc(C(=O)N(C)C)cc2)cc1 | 100 | 0.5 | – |
| C=C(C)CCN1[C@@H]2CC[C@H]1C/C(=C(/c1ccc(C(=O)NCC)cc1)c1cccc(C(C)=O)c1)C2 | 2.8 | 1.5 | – |
| CCNC(=O)c1ccc(C(=C2CC3CCC(C2)N3Cc2cnc[nH]2)c2cccc(NC(C)=O)c2)cc1 | 9.4 | – | – |
| CCNC(=O)c1ccc(C(=C2CC3CCC(C2)N3Cc2ccoc2)c2cccc(C(=O)O)c2)cc1 | – | 3.5 | 8 |
| CCNC(=O)c1ccc(C(=C2CC3CCC(C2)N3CCc2ccccc2)c2ccccc2)cc1 | 72 | 0.24 | 300 |
| CCNC(=O)c1ccc(/C(=C2/C[C@H]3CC[C@@H](C2)N3Cc2ccsc2)c2cccc(-c3nn[nH]n3)c2)cc1 | 3100 | 31 | – |
| CCNC(=O)c1ccc(C(=C2CC3CCC(C2)N3Cc2ccoc2)c2ccncc2)cc1 | 2.2 | 6 | 0.37 |

| SMILES | Ki [1] [nM] | Ki [2] [nM] | Ratio [3] |
| --- | --- | --- | --- |
| CCNC(=O)c1ccc(C(=C2CC3CCC(C2)N3Cc2c[nH]cn2)c2cccc(NC(C)=O)c2)cc1 | – | 19 | 0.5 |
| C=C(C)CCN1C2CCC1CC(=C(c1ccc(C(=O)NCC)cc1)c1cccc(C(C)=O)c1)C2 | 1.9 | 1.8 | 1.1 |
| CCNC(=O)c1ccc(C(=C2CC3CCC(C2)N3Cc2ccoc2)c2cncnc2)cc1 | 6.9 | 2.3 | 3 |
| CCNC(=O)c1ccc(C(=C2CC3CCC(C2)N3Cc2ccoc2)c2cc(N)cc(C(=O)O)c2)cc1 | 9100 | 56 | 160 |
| CCNC(=O)c1ccc(C(=C2CC3CCC(C2)N3Cc2ccoc2)c2cccc(C(C)=O)c2)cc1 | 1.3 | 0.4 | 3.3 |
| CCNC(=O)c1ccc(C(=C2CC3CCC(C2)N3Cc2ccoc2)c2nnn[nH]2)cc1 | 83 | 210 | 0.4 |
| CCNC(=O)c1ccc(C=C2CC3CCC(C2)N3Cc2ccoc2)cc1 | 110 | 93 | 1.2 |
| CCNC(=O)c1ccc(C(=C2CC3CCC(C2)N3Cc2ccoc2)c2ccc(C(=O)O)cc2)cc1 | 12 | 5.3 | 2.3 |
| CCNC(=O)c1ccc(C(=C2CC3CCC(C2)N3Cc2ccoc2)c2cccc(CCC(=O)O)c2)cc1 | 3 | 0.78 | 3.9 |
| CCNC(=O)c1ccc(C(=C2CC3CCC(C2)N3Cc2ccoc2)c2cccc(C#N)c2)cc1 | 3.3 | 0.6 | 5.5 |
| CCNC(=O)c1ccc(C(=C2CC3CCC(C2)N3Cc2ccoc2)c2c(C)cccc2C)cc1 | 1.4 | 1.3 | 1.1 |
| CCNC(=O)c1ccc(/C(=C2\C[C@H]3CC[C@@H](C2)N3Cc2ccsc2)c2cccc(-c3nn[nH]n3)c2)cc1 | 12 | 0.7 | – |
| CCNC(=O)c1ccc(C(=C2CC3CCC(C2)N3Cc2cccs2)c2ccccn2)cc1 | 6 | 3.8 | 1.6 |
| CCNC(=O)c1ccc(C(=C2CC3CCC(C2)N3Cc2cccnc2)c2ccccc2)cc1 | – | 71 | 0.87 |
| CCNC(=O)c1ccc(C(=C2CC3CCC(C2)N3Cc2ccoc2)c2ccc(O)c(OC)c2)cc1 | 0.59 | 0.3 | 2 |
| CCNC(=O)c1ccc(C(=C2CC3CCC(C2)N3Cc2ccoc2)c2ccc(C(N)=O)cc2)cc1 | 1.3 | 3.9 | 0.33 |
| CCNC(=O)c1ccc(C(=C2CC3CCC(C2)N3Cc2ccoc2)c2ccc(C(=O)N(C)C)cc2)cc1 | 6.7 | 4.6 | 1.5 |
| CCNC(=O)c1ccc(C(=C2CC3CCC(C2)N3Cc2ccoc2)c2ccccn2)cc1 | 45 | 10 | 4.5 |
| CCNC(=O)c1ccc(/C(C#N)=C2/C[C@H]3CC[C@@H](C2)N3Cc2ccoc2)cc1 | 2.3 | 1.1 | – |
| CCNC(=O)c1ccc(C(=C2CC3CCC(C2)N3Cc2ccoc2)c2cc(C(=O)O)cc([N+](=O)[O-])c2)cc1 | 12 | 0.94 | 13 |
| CCNC(=O)c1ccc(C(=C2CC3CCC(C2)N3Cc2ccsc2)c2cnccn2)cc1 | 2.5 | 17 | 0.15 |

— ChEMBL document CHEMBL1138013, “Parallel methods for the preparation and SAR exploration of N-ethyl-4-[(8-alkyl-8-aza-bicyclo[3.2.1]oct-3-ylidene)-aryl-methyl]-benzamides, powerful mu and delta opioid agonists” (Bioorg Med Chem Lett, 2004)
